Patent publication US9701693B2, “Selective glycosidase inhibitors and uses thereof” (Alectos Therapeutics Inc., priority 2011, dated 2017)

What was measured:
human O-GlcNAcase = human O-GlcNAcase (Homo sapiens (Human), UniProt O60502); assay: Fluorescence-based assay for determination of KI values for inhibition of O-GlcNAcase activity; format: biochemical; conditions: purified human O-GlcNAcase 0.7 nM, 2 mM 4-Methylumbelliferyl N-acetyl-β-D-glucosaminide, pH 7.0, Cheng-Prusoff; read-out: Fluorescence-based hOGA Ki
Protocol: Assay for Determination of KIValues for Inhibition of O-GlcNAcase Activity Experimental procedure for kinetic analyses: Enzymatic reactions were carried out in a reaction containing 50 mM NaH2PO4, 100 mM NaCl and 0.1% BSA (pH 7.0) using 2 mM 4-Methylumbelliferyl N-acetyl-β-D-glucosaminide dihydrate (Sigma M2133) dissolved in ddH2O, as a substrate. The amount of purified human O-GlcNAcase enzyme used in the reaction was 0.7 nM. Test compound of varying concentrations was added to the enzyme prior to initiation of the reaction. The reaction was performed at room temperature in a 96-well plate and was initiated with the addition of substrate. […] The slope of product production was determined for each concentration of compound tested and plotted, using standard curve fitting algorithms for sigmoidal dose response curves. The values for a four parameter logistic curve fit of the data were determined.

[1] = tested on: O-GlcNAcase in rat PC-12 cells; assay: Cell-based ELISA for cellular O-GlcNAcase inhibition (O-GlcNAcylated protein, RL-2 antibody); conditions: 24 h treatment, O-GlcNAcylated protein detected with RL-2 antibody
Source text: Assay for Determination of Cellular Activity for Compounds that Inhibit O-GlcNAcase Activity
Inhibition of O-GlcNAcase, which removes O-GlcNAc from cellular proteins, results in an increase in the level of O-GlcNAcylated protein in cells. An increase in O-GlcNAcylated protein can be measured by an antibody, such as RL-2, that binds to O-GlcNAcylated protein. The amount of O-GlcNAcylated protein:RL2 antibody interaction can be measured by enzyme linked immunosorbant assay (ELISA) procedures.
A variety of tissue culture cell lines, expressing endogenous levels of O-GlcNAcase, can be utilized; examples include rat PC-12, and human U-87, or SK-N-SH cells. […] If desired, the total protein concentration of samples was determined using 20 μL of the sample using the BCA method.
The ELISA portion of the assay was performed in a black Maxisorp 96-well plate that was coated overnight at 4° C. with 100 μL/well of the cell lysate (1:10 dilution of the lysate with PBS containing protease inhibitors, phosphatase inhibitors, and PMSF). […] The detection reaction was incubated for 15 minutes at room temperature and then read with excitation at 530 nm and emission at 590 nm
The amount of O-GlcNAcylated protein, as detected by the ELISA assay, was plotted for each concentration of test compound using standard curve fitting algorithms for sigmoidal dose response curves. […]

Chain of human O-GlcNAcase (O60502 whole entry): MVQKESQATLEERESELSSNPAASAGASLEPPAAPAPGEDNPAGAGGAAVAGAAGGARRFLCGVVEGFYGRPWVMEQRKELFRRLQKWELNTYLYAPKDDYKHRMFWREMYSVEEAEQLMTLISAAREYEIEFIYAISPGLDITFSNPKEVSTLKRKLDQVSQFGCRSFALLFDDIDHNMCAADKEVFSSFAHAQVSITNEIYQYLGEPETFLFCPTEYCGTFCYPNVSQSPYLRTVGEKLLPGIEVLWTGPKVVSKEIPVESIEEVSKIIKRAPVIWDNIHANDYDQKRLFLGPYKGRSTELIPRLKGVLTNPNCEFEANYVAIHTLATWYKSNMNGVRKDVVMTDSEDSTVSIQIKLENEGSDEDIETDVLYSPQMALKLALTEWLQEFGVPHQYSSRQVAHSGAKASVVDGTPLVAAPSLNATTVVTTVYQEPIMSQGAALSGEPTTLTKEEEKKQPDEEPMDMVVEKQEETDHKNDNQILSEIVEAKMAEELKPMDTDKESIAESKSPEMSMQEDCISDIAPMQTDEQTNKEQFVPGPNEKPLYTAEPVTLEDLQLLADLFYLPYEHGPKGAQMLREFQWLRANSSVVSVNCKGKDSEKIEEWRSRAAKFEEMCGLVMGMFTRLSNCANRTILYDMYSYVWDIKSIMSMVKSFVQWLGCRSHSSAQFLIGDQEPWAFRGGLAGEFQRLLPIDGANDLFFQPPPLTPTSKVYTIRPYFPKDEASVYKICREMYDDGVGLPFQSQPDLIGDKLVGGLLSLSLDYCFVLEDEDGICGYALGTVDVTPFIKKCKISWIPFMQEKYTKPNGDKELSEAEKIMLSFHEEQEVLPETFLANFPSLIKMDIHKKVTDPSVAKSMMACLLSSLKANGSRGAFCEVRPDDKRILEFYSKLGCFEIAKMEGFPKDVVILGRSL

Compound | Ki (human O-GlcNAcase) | EC50 [1]
CN(C)C1=N[C@@H]2[C@@H](O)[C@@H](O)[C@@H](CO)O[C@@H]2S1 [Example 2, (3aR,5R,6R,7R,7aR)-2-(dimethylamino)-5-(hydroxymethyl)-5,6,7,7a-tetrahydro-3aH-pyrano[3,2-d]thiazole-6,7-diol] | 28.6 nM | –
CNC1=N[C@@H]2[C@H](O)[C@H](O)[C@@H](CO)O[C@@H]2S1 [Example 4, (3aR,5R,6S,7S,7aR)-5-(hydroxymethyl)-2-(methylamino)-5,6,7,7a-tetrahydro-3aH-pyrano[3,2-d]thiazole-6,7-diol] | – | 109 nM
